Test results as given in US20100261783A1, “CRUCIFEROUS 3H-1,2-DITHIOLE-3-THIONE (D3T) AND METHODS OF PROTECTING AGAINST CELL INJURY” (priority 2009, published 2010).

Key:
[1] = test system: primary human cardiomyocytes; assay: Induction of antioxidants and phase 2 enzymes in human cardiomyocytes; format: cell-based
[2] = test system: primary human cardiomyocytes; details: cited from earlier work
[3] = test system: human neuroblastoma SH-SY5Y cells; assay: Induction of cellular antioxidants and phase 2 enzymes (GSH, NQO1, GCL) in SH-SY5Y cells; format: cell-based
human cardiomyocytes [4] = assay: Protection of human cardiomyocytes from oxidative/electrophilic injury and doxorubicin toxicity; format: cell-based
SH-SY5Y cells [5] = assay: Protection of SH-SY5Y cells against neurotoxicant-elicited cytotoxicity; format: cell-based; details: human neuroblastoma SH-SY5Y cells
SH-SY5Y cells [6] = details: D3T-pretreatment; dopamine, 6-hydroxydopamine, 4-hydroxy-2-nonenal, H2O2; cited from earlier work
human primary astrocytes = assay: Induction of cellular antioxidants and phase 2 enzymes in human primary astrocytes; format: cell-based
human cardiomyocytes [7] = details: cited from earlier work
[8] = test system: human neuroblastoma SH-SY5Y cells; details: D3T-pretreatment of SH-SY5Y cells; cited from earlier work

In the case of `S=c1ccss1` [D3T, 3H-1,2-dithiole-3-thione], the “induction of antioxidants in mitochondria” value ([1]; mitochondria of the human cardiomyocytes) is given as “potently induced”, the “induction of a series of antioxidants” value ([1]; primary human cardiomyocytes, total cellular) is given as “potently induced” and the “upregulation of antioxidants and phase 2 enzymes” value [2] is given as “potently upregulated”. For the same compound, the “induction of glutathione (GSH)” value ([3]; SH-SY5Y cells) was “marked concentration- and time-dependent induction”, the “protein and mRNA expression of gamma-glutamylcysteine ligase (GCL)” value ([3]; SH-SY5Y cells) was “increased” and the “induction of cellular antioxidants and phase 2 enzymes” value ([3]; human neuronal cells (neuroblastoma SH-SY5Y cells)) was “capable of inducing”. The “protection of cardiomyocytes from injury elicited by doxorubicin” value (human cardiomyocytes [4]; doxorubicin) was “potently protected”, the “protection of cardiomyocytes from injury caused by free radicals and electrophiles” value (human cardiomyocytes [4]; wide range of free radicals and electrophiles) was “nearly complete protection” and the “protection against acrolein-induced cytotoxicity” value (SH-SY5Y cells [5]) was “dramatic protection”. The “protection against the cytotoxicity elicited by neurotoxicants” value (SH-SY5Y cells [6]) was “significant protection”, the “induction of cellular antioxidants including glutathione (GSH) and phase 2 enzymes” value (human primary astrocytes) was “able to induce” and the “resistance to oxidative/electrophilic stress and doxorubicin toxicity” value (human cardiomyocytes [7]) was “increased resistance”. The “induction of GSH, NQO1, and mitochondrial GSH” value [8] was “induction”.
